The values below are quoted from earlier work in paper PMC11643494, “Structure–Activity Relationship Studies in a Series of 2-Aryloxy-N-(pyrimidin-5-yl)acetamide Inhibitors of SLACK Potassium Channels” (Molecules, 2024).

Structures are written as SMILES.

One data set concerns A934T SLACK. Further details: method as in PMID 38782404. Conditions: read-out: IC50 versus A934T SLACK; cited from earlier work.
The next data set relates to G288S SLACK. Further details: method as in PMID 38782404. Conditions: read-out: IC50 versus G288S SLACK; cited from earlier work.
A further data set concerns WT SLACK. Further details: method as in PMID 38782404. Particulars: patch clamp; read-out: IC50 versus WT SLACK; cited from earlier work.
In another data set the test system is hERG. Also on record: method as in PMID 38782404. Conditions: cited from earlier work.
On the set-up of data set [1]: method as in PMID 38782404. Particulars: cited from earlier work.
The test system of another data set is KV7.2. Also on record: method as in PMID 38782404. Particulars: cited from earlier work.
Details of data set [2]: method as in PMID 38782404. Particulars: human liver microsomes; cited from earlier work.
The test system of the next data set is WT SLICK. Also on record: method as in PMID 38782404. Conditions: read-out: IC50 versus WT SLICK; cited from earlier work.

Turning to `O=S(=O)(Nc1ccc2c(c1)CCN2Cc1ccc(C(F)(F)F)cc1C(F)(F)F)C1CCCCC1` [Compound 9], the IC50 with A934T SLACK is 280 nM; in the data set with G288S SLACK, 300 nM; with WT SLACK, 200 nM; in the data set with WT SLICK, 1300 nM. For the same molecule, the “activity on hERG channels, result in words” value in the data set on hERG is “no activity”. In addition, the “plasma protein binding, result in words” value in data set [1] is recorded as “highly bound to plasma proteins”. Besides, the “activity on KV7.2 channels, result in words” value in the data set with KV7.2 is reported as “no activity”. The “metabolic stability (clearance), result in words” value in data set [2] is “low clearance compound”.

The term IC50 denotes the concentration needed to halve the response being measured.
